We go through two compounds from patent US8637702B2, “Derivatives of N-hydroxybenzamide for treating HIV infections” (Italfarmaco S.p.A., priority 2009, dated 2014).

In experiment [1] the test system is HIV-1 expression in ACH-2 cells. Description: Induction of the HIV-1 expression in the ACH-2 cell line (p24). The format is cell-based. The conditions noted are these: 24 hours. As to the method: ACH2 cells were obtained through AIDS Research and Reference Reagent Program, Division of AIDS, National Institute of Allergy and Infectious Diseases, National Institutes of Health, Bethesda, Md. The cells were cultured in flasks, washed in RPMI and resuspended in RPMI/10% FCS at a concentration of 2×10^6 cells/mL. […] After 24 hours of incubation at 37° C./5% CO2, 50 μL of supernatant were removed for the cytotoxicity assay of the lactate dehydrogenase (LDH) and Triton-X-100 (0.5% vol/vol final concentration) were added to each culture. The p24 assays of the lysates were performed immediately.
p24 was measured using specific antibodies immobilized on magnetic beads as previously described [Nold M. F. et al. J. Immunol. […] The levels of p24 for each experiment without HDAC inhibitors were fixed at 1.0 and the increase values by the number of times for each experiment and each analogous were calculated.

A further experiment has as its target HDAC1 (Homo sapiens, UniProt Q13547). Put plainly: Inhibition of histone deacetylase isoforms, HDAC1.
A further experiment has as its target HDAC2 (Homo sapiens, UniProt Q92769). Description: Inhibition of histone deacetylase isoforms, HDAC2.
A further experiment deals with HDAC3 (Homo sapiens, UniProt O15379). Put plainly: Inhibition of histone deacetylase isoforms, HDAC3.
The next experiment has as its target HDAC4 (Homo sapiens, UniProt P56524). Put plainly: Inhibition of histone deacetylase isoforms, HDAC4.
A further experiment deals with T1, HDAC6 (Homo sapiens, UniProt Q9UBN7).
T1 sequence (Q9UBN7 1-1215): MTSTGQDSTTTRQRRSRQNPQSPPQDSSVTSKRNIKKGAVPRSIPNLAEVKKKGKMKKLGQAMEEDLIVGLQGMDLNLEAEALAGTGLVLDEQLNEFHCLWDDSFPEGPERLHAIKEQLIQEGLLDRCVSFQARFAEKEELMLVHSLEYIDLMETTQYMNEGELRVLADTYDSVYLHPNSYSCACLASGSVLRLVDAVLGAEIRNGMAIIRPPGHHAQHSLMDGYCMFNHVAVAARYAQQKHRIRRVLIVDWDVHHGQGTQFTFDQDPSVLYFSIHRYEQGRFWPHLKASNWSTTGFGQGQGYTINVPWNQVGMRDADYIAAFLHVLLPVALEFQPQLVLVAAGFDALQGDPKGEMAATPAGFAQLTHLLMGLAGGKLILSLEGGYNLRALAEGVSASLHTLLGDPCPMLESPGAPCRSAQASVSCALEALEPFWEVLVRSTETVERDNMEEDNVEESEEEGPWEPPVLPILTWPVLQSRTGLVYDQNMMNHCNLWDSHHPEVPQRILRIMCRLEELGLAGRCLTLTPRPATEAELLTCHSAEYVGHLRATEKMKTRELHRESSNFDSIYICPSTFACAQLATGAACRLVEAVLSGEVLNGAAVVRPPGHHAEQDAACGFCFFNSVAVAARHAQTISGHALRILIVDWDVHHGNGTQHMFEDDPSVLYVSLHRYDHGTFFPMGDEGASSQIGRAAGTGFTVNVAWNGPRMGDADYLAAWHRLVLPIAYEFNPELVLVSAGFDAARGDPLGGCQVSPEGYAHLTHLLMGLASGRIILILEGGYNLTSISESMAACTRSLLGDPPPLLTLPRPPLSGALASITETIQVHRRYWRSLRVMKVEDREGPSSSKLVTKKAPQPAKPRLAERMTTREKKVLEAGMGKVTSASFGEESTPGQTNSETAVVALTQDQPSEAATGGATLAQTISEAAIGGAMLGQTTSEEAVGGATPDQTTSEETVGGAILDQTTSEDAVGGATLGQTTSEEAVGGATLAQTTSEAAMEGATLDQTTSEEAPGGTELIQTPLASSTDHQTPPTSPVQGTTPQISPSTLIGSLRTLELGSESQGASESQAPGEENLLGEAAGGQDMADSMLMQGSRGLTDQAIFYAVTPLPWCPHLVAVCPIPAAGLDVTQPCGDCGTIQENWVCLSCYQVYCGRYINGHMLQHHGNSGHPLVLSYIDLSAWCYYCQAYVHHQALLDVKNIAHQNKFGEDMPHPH
Description: Inhibition of histone deacetylase isoforms, HDAC6.

The next experiment addresses HDAC9 (Homo sapiens, UniProt Q9UKV0). Put plainly: Inhibition of histone deacetylase isoforms, HDAC9.
Another experiment concerns the target T2, HDAC10 (Homo sapiens, UniProt Q969S8).
T2 sequence (Q969S8 1-669): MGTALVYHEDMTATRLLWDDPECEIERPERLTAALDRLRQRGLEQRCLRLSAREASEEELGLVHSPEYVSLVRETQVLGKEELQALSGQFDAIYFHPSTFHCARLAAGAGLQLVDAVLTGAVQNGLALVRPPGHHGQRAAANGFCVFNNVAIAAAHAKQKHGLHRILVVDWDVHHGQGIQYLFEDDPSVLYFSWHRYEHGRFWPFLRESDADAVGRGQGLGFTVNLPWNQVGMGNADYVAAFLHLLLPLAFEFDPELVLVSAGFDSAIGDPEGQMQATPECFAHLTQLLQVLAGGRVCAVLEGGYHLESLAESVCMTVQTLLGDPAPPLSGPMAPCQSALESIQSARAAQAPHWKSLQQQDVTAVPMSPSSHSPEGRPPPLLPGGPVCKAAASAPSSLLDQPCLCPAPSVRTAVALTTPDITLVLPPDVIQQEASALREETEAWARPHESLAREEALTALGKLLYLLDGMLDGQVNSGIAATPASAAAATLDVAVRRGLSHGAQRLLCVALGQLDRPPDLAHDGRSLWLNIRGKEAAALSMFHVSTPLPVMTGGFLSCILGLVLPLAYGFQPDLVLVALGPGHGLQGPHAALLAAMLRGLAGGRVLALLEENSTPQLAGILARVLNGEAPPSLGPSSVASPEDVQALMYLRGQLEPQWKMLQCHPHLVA
Put plainly: Inhibition of histone deacetylase isoforms, HDAC10.

Sequence of HDAC1 (Q13547 whole entry, canonical isoform): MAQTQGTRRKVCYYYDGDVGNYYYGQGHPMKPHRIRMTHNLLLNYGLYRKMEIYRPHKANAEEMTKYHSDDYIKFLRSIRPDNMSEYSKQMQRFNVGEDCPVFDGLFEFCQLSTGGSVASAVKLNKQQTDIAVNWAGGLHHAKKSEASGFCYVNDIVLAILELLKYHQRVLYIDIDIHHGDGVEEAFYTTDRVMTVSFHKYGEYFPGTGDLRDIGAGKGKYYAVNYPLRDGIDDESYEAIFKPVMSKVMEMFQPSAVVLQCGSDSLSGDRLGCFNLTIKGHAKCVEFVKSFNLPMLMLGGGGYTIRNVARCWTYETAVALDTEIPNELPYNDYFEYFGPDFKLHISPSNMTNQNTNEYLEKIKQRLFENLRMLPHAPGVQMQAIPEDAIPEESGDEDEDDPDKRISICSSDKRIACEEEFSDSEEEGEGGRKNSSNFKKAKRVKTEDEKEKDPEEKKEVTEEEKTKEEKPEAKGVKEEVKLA
Sequence of HDAC4 (P56524 whole entry, canonical isoform): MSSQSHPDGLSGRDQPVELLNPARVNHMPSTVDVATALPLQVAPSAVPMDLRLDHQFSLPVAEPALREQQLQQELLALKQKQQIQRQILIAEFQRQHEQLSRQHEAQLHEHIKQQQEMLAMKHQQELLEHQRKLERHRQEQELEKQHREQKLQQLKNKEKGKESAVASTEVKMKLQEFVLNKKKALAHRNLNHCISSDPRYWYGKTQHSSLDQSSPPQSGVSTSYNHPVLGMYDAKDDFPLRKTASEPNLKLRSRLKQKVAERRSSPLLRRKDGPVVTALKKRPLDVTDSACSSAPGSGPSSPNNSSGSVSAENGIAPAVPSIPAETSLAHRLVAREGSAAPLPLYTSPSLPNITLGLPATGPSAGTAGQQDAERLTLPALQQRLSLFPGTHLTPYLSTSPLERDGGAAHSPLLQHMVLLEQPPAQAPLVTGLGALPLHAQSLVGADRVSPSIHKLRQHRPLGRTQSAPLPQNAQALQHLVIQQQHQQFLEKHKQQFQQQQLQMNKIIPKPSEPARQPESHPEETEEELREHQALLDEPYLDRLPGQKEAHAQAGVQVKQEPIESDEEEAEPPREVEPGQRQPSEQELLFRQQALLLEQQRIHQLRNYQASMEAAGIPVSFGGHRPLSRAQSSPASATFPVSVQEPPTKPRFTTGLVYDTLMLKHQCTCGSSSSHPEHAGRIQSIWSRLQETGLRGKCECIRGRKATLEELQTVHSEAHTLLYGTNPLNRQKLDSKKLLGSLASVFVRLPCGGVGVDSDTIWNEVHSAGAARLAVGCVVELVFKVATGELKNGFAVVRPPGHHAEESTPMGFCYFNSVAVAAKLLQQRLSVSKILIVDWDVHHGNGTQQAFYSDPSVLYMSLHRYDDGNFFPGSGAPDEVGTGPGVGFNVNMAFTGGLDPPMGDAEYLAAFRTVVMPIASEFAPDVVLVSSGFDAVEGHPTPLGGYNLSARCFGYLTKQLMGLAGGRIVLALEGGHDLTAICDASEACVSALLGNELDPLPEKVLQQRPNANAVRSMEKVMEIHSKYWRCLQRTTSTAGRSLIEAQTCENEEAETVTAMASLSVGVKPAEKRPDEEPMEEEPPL
Sequence of HDAC9 (Q9UKV0 whole entry, canonical isoform): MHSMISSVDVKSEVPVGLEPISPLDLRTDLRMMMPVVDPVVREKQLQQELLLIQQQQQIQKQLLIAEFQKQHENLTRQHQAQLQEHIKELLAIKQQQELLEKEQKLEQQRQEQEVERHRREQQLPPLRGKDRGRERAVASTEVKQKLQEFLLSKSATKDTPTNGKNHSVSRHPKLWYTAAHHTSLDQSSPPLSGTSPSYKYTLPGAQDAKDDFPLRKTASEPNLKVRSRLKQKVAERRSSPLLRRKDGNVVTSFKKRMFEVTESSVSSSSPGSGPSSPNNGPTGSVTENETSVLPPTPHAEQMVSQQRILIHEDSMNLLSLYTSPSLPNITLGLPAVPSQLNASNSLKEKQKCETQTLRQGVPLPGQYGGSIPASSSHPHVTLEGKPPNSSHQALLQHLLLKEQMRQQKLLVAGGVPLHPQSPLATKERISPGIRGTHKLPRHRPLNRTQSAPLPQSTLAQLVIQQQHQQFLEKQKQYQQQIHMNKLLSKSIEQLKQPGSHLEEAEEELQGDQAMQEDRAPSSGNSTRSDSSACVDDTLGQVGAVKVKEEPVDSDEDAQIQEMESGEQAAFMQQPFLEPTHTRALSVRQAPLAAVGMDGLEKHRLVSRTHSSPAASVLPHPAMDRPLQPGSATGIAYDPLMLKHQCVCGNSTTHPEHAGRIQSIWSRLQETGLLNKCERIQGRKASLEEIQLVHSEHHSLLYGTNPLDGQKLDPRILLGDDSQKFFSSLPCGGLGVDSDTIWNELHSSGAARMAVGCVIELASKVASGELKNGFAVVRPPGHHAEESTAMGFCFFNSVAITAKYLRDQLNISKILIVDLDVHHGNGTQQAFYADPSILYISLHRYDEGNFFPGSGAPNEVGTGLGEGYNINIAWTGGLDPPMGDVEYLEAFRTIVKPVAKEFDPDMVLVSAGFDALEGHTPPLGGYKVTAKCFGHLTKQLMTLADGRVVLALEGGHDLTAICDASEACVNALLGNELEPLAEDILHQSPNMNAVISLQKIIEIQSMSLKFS
Sequence of HDAC2 (Q92769 whole entry, canonical isoform): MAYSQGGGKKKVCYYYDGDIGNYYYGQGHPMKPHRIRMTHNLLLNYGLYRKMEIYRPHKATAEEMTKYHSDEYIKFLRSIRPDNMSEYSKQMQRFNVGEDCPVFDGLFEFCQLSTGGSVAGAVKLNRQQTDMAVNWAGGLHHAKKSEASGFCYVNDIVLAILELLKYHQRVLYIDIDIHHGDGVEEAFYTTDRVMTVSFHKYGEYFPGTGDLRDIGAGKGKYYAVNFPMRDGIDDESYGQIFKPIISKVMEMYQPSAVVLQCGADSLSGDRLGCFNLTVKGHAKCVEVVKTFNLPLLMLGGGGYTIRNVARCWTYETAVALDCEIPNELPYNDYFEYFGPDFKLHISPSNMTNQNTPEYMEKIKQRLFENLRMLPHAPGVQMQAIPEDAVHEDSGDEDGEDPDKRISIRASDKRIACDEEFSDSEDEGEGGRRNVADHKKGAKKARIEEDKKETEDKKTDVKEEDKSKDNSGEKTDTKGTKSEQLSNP
Sequence of HDAC3 (O15379 whole entry, canonical isoform): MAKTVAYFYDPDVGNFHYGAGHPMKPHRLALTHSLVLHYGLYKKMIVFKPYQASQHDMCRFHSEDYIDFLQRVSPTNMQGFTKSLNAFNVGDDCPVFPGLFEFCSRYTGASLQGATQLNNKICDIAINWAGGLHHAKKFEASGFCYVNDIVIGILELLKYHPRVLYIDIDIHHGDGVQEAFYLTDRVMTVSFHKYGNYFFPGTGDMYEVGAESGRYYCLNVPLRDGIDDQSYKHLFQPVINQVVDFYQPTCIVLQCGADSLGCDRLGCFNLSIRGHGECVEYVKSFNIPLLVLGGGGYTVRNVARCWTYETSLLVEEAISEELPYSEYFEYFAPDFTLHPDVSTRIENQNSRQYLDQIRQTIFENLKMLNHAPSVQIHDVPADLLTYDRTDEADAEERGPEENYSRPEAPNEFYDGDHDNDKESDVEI
Sequence of HDAC3 (Q9Y618 395-489 partner limits assumed): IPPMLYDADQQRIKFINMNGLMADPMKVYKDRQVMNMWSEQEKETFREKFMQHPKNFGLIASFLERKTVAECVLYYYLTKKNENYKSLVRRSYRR
Description for HDAC10: (§1) Recombinant human enzymes were acquired from BPS Biosciences (CA, USA). Isoforms of Class I HDAC1, 2, 3; HDAC6, 10 of Class IIb and Class IV HDAC11 were tested using the Fluor-de-Lys fluorogenic synthetic substrate (Enzo Life Sciences, Plymouth Meeting, Pa.). […] Each inhibitor was dissolved in DMSO and then further diluted in an assay buffer. […] The assays were performed by pre-incubating each enzyme with the inhibitors for 15 minutes at 37° C. The reaction was started by adding the substrate at 37° C. and allowed to proceed for 60 minutes. The fluorescent signal was generated by adding 50 μL of a twice concentrated developer solution 2 (Enzo) containing trichostatin A 4 μM.
Description for HDAC2: (§2) Recombinant human enzymes were acquired from BPS Biosciences (CA, USA). Isoforms of Class I HDAC1, 2, 3; HDAC6, 10 of Class IIb and Class IV HDAC11 were tested using the Fluor-de-Lys fluorogenic synthetic substrate (Enzo Life Sciences, Plymouth Meeting, Pa.). […] The recombinant human HDAC8 assay was performed using HDAC8 Fluorimetric Drug Discovery Kit (Enzo) according to the manufacturer instructions. Each inhibitor was dissolved in DMSO and then further diluted in an assay buffer. […] The assays were performed by pre-incubating each enzyme with the inhibitors for 15 minutes at 37° C. The reaction was started by adding the substrate at 37° C. and allowed to proceed for 60 minutes. The fluorescent signal was generated by adding 50 μL of a twice concentrated developer solution 2 (Enzo) containing trichostatin A 4 μM.
Description for HDAC3: as §2
Description for HDAC4: as §1
Description for HDAC6: as §2
Description for HDAC9: as §1

With `O=C(NO)c1ccc(NC(=O)[C@H](Cc2ccc3ccccc3c2)NC(=O)c2ccccc2)cc1` [Compound g, 4-(2(S)-benzoylamino-3-naphtalen-2-yl-propionylamino)-N-hydroxy-benzamide], the “increase of the number of times in the level of p24 with respect to control” value in experiment [1] (31 nM) is 2 times; in experiment [1] (63 nM) it was 3 times; in experiment [1] (125 nM), 10 times; in experiment [1] (250 nM), 27 times; in experiment [1] (250 nM, listed as compound g) it was 30 times. The IC50 on HDAC1 amounted to 54.7 nM; against HDAC2, 12 nM; against HDAC3, 246 nM; at HDAC4, 3110 nM; against HDAC6, 3620 nM; at HDAC9, 4150 nM. The compound further returned an IC50 at HDAC10 of 132 nM.
As to `O=C(NO)c1ccc(NC(=O)[C@H](Cc2ccc3ccccc3c2)NC(=O)c2ccc3c(c2)OCO3)cc1` [Compound t, benzo[1,3]dioxole-5-carboxylic acid [1(S)-(4-hydroxycarbamoyl-phenylcarbamoyl)-2-naphtalen-2-yl-ethy]-amide], the “increase of the number of times in the level of p24 with respect to control” value in experiment [1] (31 nM) was 1 times; in experiment [1] (63 nM), 2 times; in experiment [1] (125 nM), 10 times; in experiment [1] (250 nM), 33 times; in experiment [1] (250 nM, listed as compound t) it was 30 times. Moreover, the IC50 was 71.5 nM against HDAC1; 29.5 nM at HDAC2; 107 nM against HDAC3; more than 10000 nM against HDAC4; 618 nM on HDAC6; more than 10000 nM at HDAC9. Besides, the IC50 at HDAC10 was 276 nM.
